We go through one substance from US20060021470A1, “Compositions for enhancing biological functions in organisms” (priority 2004, published 2006).

The assay has as its system ech42 (42-kDa endochitinase-encoding) gene expression. The assay can be described thus: ech42 endochitinase promoter:gfp induction in T. atroviride strain P1. It is filed as cell-based. To be noted: endochitinase promoter:gfp fluorescence in Trichoderma strain P1. An excerpt:
To monitor chitinase expression during mycoparasitism of Trichoderma atroviride (formerly T. harzianum) strain P1 in situ, the strain was transformed with plasmids containing fusions of green fluorescent protein (“gfp”) to the 5-regulatory sequences of the T. atroviride nag1 gene (N-acetyl-beta-D-glucosaminidase-encoding) or ech42 (42-kDa endochitinase-encoding) genes. Confronting these strains with the target Rhizoctonia solani led to induction of gene expression before (ech42) or after (nag 1) physical contact. […] The chitinase inhibitor allosamidin blocked ech42 expression and reduced inhibition of R. solani growth during confrontation. […] T. atroviride, T. harzianum, and any other species of Trichoderma produce small quantities of particular enzymes constitutively. […]
The ability of Trichoderma to release elicitor compounds from the various target fungi was measured by induction of gfp in the endochitinase promoter labeled P1 strain of Trichoderma. […]
In subsequent experiments, the release of elicitors from cell walls of some of the same fungi and Oomycetes tested above using enzymes (endochitinase, glucanase, exochitinase, mixed cellulase) purified from T. atroviride was assessed. Again, the elicitation abilities of the materials were assessed with Trichoderma strain P1 transformed to contain the endochitinase promoter:gfp construct. […]

With Chitobiose, the elicitor activity entry is recorded as “least effective”.
